Assay [1] has as its target T1, Brd4 bromodomain 1 (BRD4(1)) (Homo sapiens, UniProt O60885). Kind of assay: Inhibition of tetra-acetylated histone H4 binding to Brd4 bromodomain 1, measured by FRET (HTRF). Also on record: made in house; host or cells: E. coli BL21(DE3). Particulars: 2 h at room temperature. The gist of the method:
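N-terminally His-tagged bromodomain (200 nM), expressed in E. coli and purified by Ni affinity and size exclusion, was incubated with biotinylated tetra-acetylated H4 peptide (25-50 nM), Eu-cryptate streptavidin and XL665 anti-His in HEPES pH 7.4 buffer with 0.2% DMSO. Reactions ran 2 h at room temperature. IC50 came from the 665/620 nm fluorescence decrease.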
On the technique in general: TR-FRET usually uses a lanthanide donor and a delayed reading to cut background.

In assay [2] the test system is MV4-11 cells. The experiment in a line: In vivo efficacy in athymic nude mouse acute myeloid leukemia xenograft model using MV4-11 cells. Particulars: athymic nude mouse AML xenograft (MV4-11), oral dosing. Here is the method: MV4-11 cells (ATCC) were grown under standard cell culture conditions and (NCr) nu/nu fisol strain of female mice age 6-7 weeks were injected with 5×10^6 cells/animal in 100 μL PBS+100 μL Matrigel in the lower left abdominal flank. By approximately day 18-21 after MV4-11 cells injection, mice were randomized based on tumor volume (L×W×H)/2) of average ˜100-300 mm^3. Mice were dosed orally with compound at 5 to 120 mg/kg b.i.d and/or q.d. on a continuous dosing schedule and at 2.5 to 85 mg/kg q.d. on a 5 day on 2 day off, 100 mg/kg q.d. on a 4 day on and 3 day off, 135 mg/kg q.d. on a 3 day on and 4 day off, 180 mg/kg on a 2 day on and 5 day off and 240 mg/kg on a 1 day on and 6 days off dosing schedules in EA006 formulation at 10 mL/kg body weight dose volume. Tumor measurements were taken with electronic micro calipers and body weights measured on alternate days beginning from dosing period. The average tumor volumes, percent Tumor Growth Inhibition (TGI) and % change in body weights were compared relative to Vehicle control animals. The means, statistical analysis and the comparison between groups were calculated using Student's t-test in Excel.

For assay [3], the system named is c-myc in Human AML MV4-11 cells. The experiment in a line: Inhibition of cMYC expression (mRNA, real-time PCR) in MV4-11 cells. Type of assay: cell-based. Particulars: 3 h treatment, cMYC mRNA by real-time PCR. Summed up:
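MV4-11 cells in IMDM with 10% FBS were treated with increasing compound concentrations (DMSO 0.1%) for 3 h at 37 °C, in triplicate. Isolated mRNA was quantified by one-step TaqMan RT-qPCR, cMYC Ct normalized to cyclophilin, and fold expression given relative to DMSO control.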
A general note: Real-time PCR tracks product formation cycle by cycle.

The subject of assay [4] is hIL-17 mRNA. The experiment in a line: Inhibition of hIL-17 mRNA transcription in OKT3-stimulated peripheral blood mononuclear cells. In kind it is cell-based. To be noted: human PBMC, OKT3 stimulation 6 h, read-out: IL-17 Activity. Here is the method: Human peripheral blood mononuclear cells were plated (2.0×10^5 cells per well) in a 96-well plate in 45 μL OpTimizer T Cell expansion media (Life Technologies) containing 20 ng/ml IL-2 and penicillin/streptomycin. The cells were treated with increasing concentrations of the test compound or DMSO (0.1%), and incubated at 37° C., 5% CO2 for 1 h before addition of 10× stock OKT3 antibody at 10 ug/ml in media. Triplicate wells were used for each concentration. Cells were incubated at 37° C., 5% CO2 for 6 h before the cells were harvested. At time of harvest, cells were pelleted by centrifugation at 800 rpm for 5 min. Cells were harvested using the mRNA Catcher PLUS kit according to manufacturer's instructions. The eluted mRNA was then used in a one-step quantitative real-time PCR reaction, using components of the RNA UltraSense™ One-Step Kit (Life Technologies) together with Applied Biosystems TaqMan® primer-probes for hIL-17 and Cyclophilin. Real-time PCR plates were run on a ViiA™7 real time PCR machine (Applied Biosystems), data was analyzed, normalizing the Ct values for hIL-17 to an internal control, prior to determining the fold induction of each unknown sample, relative to the control.

The test system of assay [5] is hIL-6 mRNA. Kind of assay: Inhibition of hIL-6 mRNA transcription in LPS-stimulated U937 macrophages. To be noted: Homo sapiens, U-937, PMA-differentiated U937 cells, 1 h pretreatment, LPS 3 h, read-out: IL-6 activity. Type of assay: cell-based, Human. The gist of the method:
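PMA-differentiated U937 macrophages (60 ng/mL PMA, 3 days) pretreated 1 h with compound in 0.1% DMSO, then stimulated with 1 ug/mL E. coli LPS for 3 h at 37° C. IL-6 mRNA quantified by one-step TaqMan qRT-PCR, normalized to cyclophilin; fold expression relative to control, triplicate wells.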

Assay [6] has as its system Human AML MV-4-11 cells. The experiment in a line: Inhibition of cell proliferation in MV4-11 cells (CellTiter Aqueous One). To be noted: MV4-11, 72 h. In kind it is cell-based. Summed up: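 MV4-11 cells, 5×10^4 per well in IMDM with 10% FBS, were exposed to increasing compound concentrations or 0.1% DMSO for 72 h at 37 °C in triplicate. Viability was read by MTS (CellTiter Aqueous One) absorbance at 490 nm after 3-4 h. IC50 was derived from background-corrected signal relative to DMSO.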

In assay [7] the target is T1, Brd4 bromodomain 1 (BRD4(1)). The experiment in a line: Inhibition of tetra-acetylated histone H4 binding to Brd4 bromodomain 1, measured by FRET (HTRF). Also on record: to Brd4 bromodomain 1 (BRD4(1) as Measured by FRET); made in house; host or cells: E. coli BL21(DE3). Particulars: 2 h at room temperature. Here is the method:
Proteins were cloned and overexpressed with a N-terminal 6×His tag, then purified by nickel affinity followed by size exclusion chromatography. Briefly, E. coli BL21(DE3) cells were transformed with a recombinant expression vector encoding N-terminally Nickel affinity tagged bromodomains from Brd2, Brd3, Brd4. Cell cultures were incubated at 37° C. with shaking to the appropriate density and induced overnight with IPTG. The supernatant of lysed cells was loaded onto Ni-IDA column for purification. Eluted protein was pooled, concentrated and further purified by size exclusion chromatography. Fractions representing monomeric protein were pooled, concentrated, aliquoted, and frozen at −80° C. for use in subsequent experiments.
Binding of tetra-acetylated histone H4 and BET bromodomains was confirmed by a Homogenous Time Resolved Fluorescence Resonance Energy Transfer (HTRF®) method. […] After a 2 h incubation at room temperature, fluorescence was measured at 665 and 620 nm with a SynergyH4 plate reader (Biotek). The binding inhibitory activity was shown by a decrease in 665 nm relative to 620 nm fluorescence. IC50 values were determined from a dose response curve.

The test system of assay [8] is hApoA-1 mRNA. Kind of assay: Up-regulation of hApoA-1 mRNA transcription in Huh7 cells. In kind it is cell-based. To be noted: Homo sapiens, Huh-7, EC170 of hApoA-1 mRNA up-regulation, 48 h, read-out: ApoA-1 activity. Here is the method: Huh7 cells (2.5×10^5 per well) were plated in a 96-well plate using 100 μL DMEM per well, (Gibco DMEM supplemented with penicillin/streptomycin and 10% FBS), 72 h before the addition of the compound. The cells are treated with increasing concentrations of the compound or DMSO (0.1%), and incubated at 37° C., 5% CO2 for 48 h. Spent media was removed from the Huh-7 cells and placed on ice for immediate use with the “LDH cytotoxicity assay Kit II” from Abcam. The cells remaining in the plate were rinsed with 100 μL PBS. Cells were harvested using the mRNA Catcher PLUS kit according to manufacturer's instructions. The eluted mRNA was then used in a one-step quantitative real-time PCR reaction, using components of the RNA UltraSense™ One-Step Kit (Life Technologies) together with Applied Biosystems TaqMan® primer-probes for hApoA-1 and Cyclophilin. Real-time PCR plates were run on a ViiA™7 real time PCR machine (Applied Biosystems), data was analyzed, normalizing the Ct values for hApoA-1 to an internal control, prior to determining the fold induction of each unknown sample, relative to the control.

Some results are limits rather than exact numbers.

Consider `Cc1ncccc1-c1cc(-c2c(C)noc2C)cc2[nH]cnc12` [Example Compound 27, 3,5-dimethyl-4-(4-(2-methylpyridin-3-yl)-1H-benzo[d]imidazol-6-yl)isoxazole], for which the IC50 in assay [1] was not above 300 nM; in assay [3], 300 to 3000 nM; in assay [4], not above 300 nM; in assay [5] it was not above 300 nM; in assay [6] it was 300 to 3000 nM. In addition, the In vivo activity result in assay [2] is “Active”.

For the compound `Cc1noc(C)c1-c1cc(-c2c(C)nn(C)c2C)c2nc[nH]c2c1` [Example Compound 9, 3,5-dimethyl-4-(4-(1,3,5-trimethyl-1H-pyrazol-4-yl)-1H-benzo[d]imidazol-6-yl)isoxazole], the IC50 was not above 300 nM in assay [1]; 300 to 3000 nM in assay [3]; not above 300 nM in assay [4]; not above 300 nM in assay [5]; 300 to 3000 nM in assay [6]. Besides, in assay [2], the In vivo activity entry is “Active”.

As to `Cc1ncccc1-c1cc(-c2c(C)noc2C)cc2cn[nH]c12` [Example Compound 70], the IC50 was not above 300 nM in assay [7], 300 to 3000 nM in assay [3], 300 to 3000 nM in assay [5] and 300 to 3000 nM in assay [6].

Consider `Cc1nc2c(-c3cn(C)nc3C)cc(-c3c(C)noc3C)cc2[nH]1` [Example Compound 60, 4-(4-(1,3-dimethyl-1H-pyrazol-4-yl)-2-methyl-1H-benzo[d]imidazol-6-yl)-3,5-dimethyl-isoxazole], for which the IC50 in assay [1] is not above 300 nM; in assay [3] it was not above 300 nM; in assay [4] it was 300 to 3000 nM; in assay [5] it was not above 300 nM; in assay [6], 300 to 3000 nM. Also, the EC170 in assay [8] was not above 0.3 µM.

For the compound `Cc1noc(C)c1-c1cc(-c2cccc(C#N)c2C)c2nc[nH]c2c1` [Example Compound 57, 3-(6-(3,5-dimethyl-isoxazol-4-yl)-1H-benzo[d]imidazol-4-yl)-2-methyl-benzonitrile], the IC50 is not above 300 nM in assay [1]; not above 300 nM in assay [3]; 300 to 3000 nM in assay [4]; not above 300 nM in assay [5]; not above 300 nM in assay [6]. Further, in assay [8], the EC170 is not above 0.3 µM.

Consider `Cc1noc(C)c1-c1nc(NCc2ccccc2)c2ccccc2n1` [Example Compound 5, N-benzyl-2-(3,5-dimethylisoxazol-4-yl)quinazolin-4-amine], for which the IC50 in assay [1] lay within 3000 to 30000 nM. Further, in assay [8], the EC170 was not above 0.3 µM.

With `Cc1nn(C)c(C)c1CNc1cc(-c2c(C)noc2C)cc2[nH]cnc12` [Example Compound 37, 6-(3,5-dimethyl-isoxazol-4-yl)-N-((1,3,5-trimethyl-1H-pyrazol-4-yl)methyl)-1H-benzo[d] imidazol-4-amine], the IC50 is not above 300 nM in assay [1]; 300 to 3000 nM in assay [3]; 300 to 3000 nM in assay [4]; 300 to 3000 nM in assay [5]; 300 to 3000 nM in assay [6]. Also, in assay [8], the EC170 is not above 0.3 µM.

As for `Cc1noc(C)c1-c1cc(NCc2ccccc2)c2nc[nH]c2c1` [Example Compound 4], the IC50 in assay [1] is not above 300 nM; in assay [3] it was 300 to 3000 nM; in assay [4], 300 to 3000 nM; in assay [5], 300 to 3000 nM; in assay [6], 300 to 3000 nM. Further, the EC170 in assay [8] was 3 to 30 µM.

On to `Cc1nc2c(-c3c(C)cncc3C)cc(-c3c(C)noc3C)cc2[nH]1` [Example Compound 97, 4-(4-(3,5-dimethyl-pyridin-4-yl)-2-methyl-1H-benzo[d]imidazol-6-yl)-3,5-dimethyl isoxazole], for which the IC50 in assay [1] was not above 300 nM; in assay [3], 300 to 3000 nM; in assay [4] it was 300 to 3000 nM; in assay [5], not above 300 nM; in assay [6] it was 300 to 3000 nM. The EC170 in assay [8] is not above 0.3 µM.

The values are drawn from US9999616B2 (ZENITH EPIGENETICS LTD., priority 2013, dated 2018).
